# Measurements as given in patent EP0364581A1, “METHOD OF STERILIZING PLANT POLLEN” (VSESOJUZNY NAUCHNO-ISSLEDOVATELSKY INST. SELSKOKHOZYAISTV. …, priority 1988, dated 1989).
# Legend:
# Assay in all cases: field test of gametocidal activity (sterilisation of anthers)
# Assay type in all cases: in vivo
# [1] = system: diploidem Roggen Sorte Gibrid 1861/79; conditions: V. Periode, 1%ige wäßrige Emulsion, 6 kg/ha; for Prozentsatz des Ansetzens der Körner bei freier Bestäubung: control = 100
# From the text: (§1) Die gametozide Aktivität der erfindungsgemäßen Sterilisationsmittel war in Feldversuch in verschiedenen bodenklimatischen Zonen mit Teilstücken von 10 m^2 Größe in drei-- bis viermaliger Wiederholung nachgewiesen. Jedes Sterilisationsmittel wurde mindestens 5 Jahre lang geprüft.
# (§2) Die Entwicklung der Perioden der Organogenese wird zytologisch überwacht. Die Behandlung von Pflanzen mit dem Sterilisationsmittel erfolgt am Anfang der fünften Periode der Organogenese nach Kupermann.
# (§3) Mit dem Ahrenschieben verwirklicht man die Isolierung von Hauptähren und anderen Stockwerken in Pergamentbeuteln. Bei Weizen und Tritikale werden Einzelisolatoren verwendet. Bei Roggen schließt man je 1 Ähre von 5 bis 7 verschiedenen nebeneinander befindlichen Pflanzen in einen gemeinsamen Isolator ein. Bei Hirse wird jede Rispe getrennt isoliert. Der Sterilitätsprozentsatz (X) für Weizen, Roggen, Tritikale und Hirse wird nach der Formel [formula]
# (§4) Samen von unbehandelten Kontrollpflanzen ermittelt.
# (§5) Die Kornzahl in nicht isolierten Ähren von Kontrollpflanzen wird bedingt für 100% Ansetzen bei freier Bestäubung angenommen.
# (§6) Um zuverlässige Angaben zu erhalten, verwendet man 20 bis 25 Isolatoren jeder Wiederholung für Weizen und Tritikale, 10 bis 15 Isolatoren jeder Wiederholung für Roggen und Hirse.
# Pflanzen von diploidem Roggen Sorte Gibrid 1861/79 werden in der V. Periode der Organogenese (nach Kupermann) mit einer 1%igen wäßrigen Emulsion von Phthalsäurediisobutylester, Kaliumsalz der 2-Methyl-3-zyklohexenkarbonsäure, 2--Methyl-3-zyklohexenkarbonsäuremethylester, Ammoniumsalz der 2-Methyl-3-zyklohexenkarbonsäure, Phthalsäurediallylester, Phthalsäuredihexylester, Ammoniumsalz der p-Hydroxybenzoesäure behandelt. Die Emulsion enthält 0,01 Masse% Dimethylsulfoxid und 0,1 Masse% C12-C14-Kalziumalkylbenzolsulfonat. Der Verbrauch an Präparat beträgt 6 kg/ha. Als Kontrolle dienen Pflanzen, behandelt mit einem Verdünner ohne Sterilisationsmittel.
# [2] = system: tetraploidem Roggen Sorte Belta; conditions: V. Periode, 1%ige wäßrige Emulsion, 6 kg/ha; for Prozentsatz des Ansetzens bei freier Bestäubung: control = 100
# From the text: as §1, §2, §3, §4, §5, §6
# Pflanzen von tetraploidem Roggen Sorte Belta werden in der V. Periode der Organogenese (nach Kupermann) mit einer 1%igen wäßrigen Emulsion von Kaliumsalz der 2-Methyl-3-zy- klohexenkarbonsäure, 2-Methyl-3-zyklohexenkarbonsäuremethyl- ester, Phthalsäuredibutylester, Phthalsäuredihexylester, Phthalsäuredipropylester, Phthalsäurediallylester, Phthalsäurediisobutylester, Kaliumsalz der […] behandelt. Die Emulsion enthält 0,01 Masse% Dimethylsuloxid und 0,1 Masse% C12-C14-Kalziumalkylbenzolsulfonat. Der Verbrauch an Präparat beträgt 6 kg/ha. Als Kontrolle dienen Pflanzen behandelt mit einem Verdünner ohne Sterilisationsmittel.
# [3] = system: Sommerweizen Moskovskaya 35; conditions: V. Periode, 1%ige wäßrige Emulsion, 10 kg/ha; for Prozentsatz des Ansetzens der freier Bestäubung: control = 100
# From the text: as §1, §2, §3, §4, §5, §6
# Pflanzen des Sommerweizens Sorte Moskovskaya 35 werden in der V. Periode der Organogenese (nach Kupermann) mit einer 1%igen wäßrigen Emulsion von Kaliumsalz der 2-Methyl-3-zyklohexenkarbonsäure,2-Methyl-3-zyklohexenkarbon- äthylester, Phthalsäuredipropylester, Phthalsäurediallylester, Phthalsäurediisobutylester, Kaliumsalz der Benzoesäure behandelt. Die Emulsion enthält 0,01 Masse% Dimethylsulfoxid und 0,1 Masse% C12-C14-Kalziumalkylbenzolsulfonat. Der Verbrauch an Präparat beträgt 10 kg/ha. Als Kontrolle dienen Pflanzen, behandelt mit einem Verdünner ohne Sterilisationsmittel. […]
# (§7) In allen Fällen dienen als Kontrolle Pflanzen, behandelt mit einem Verdünner ohne Sterilisationsmittel. Die Prüfergebnisse sind in der Tabelle 20 angeführt. […] Periode der Organogenese erhalten.
# [4] = system: Tritikale der Sorte PRAG-109; conditions: V. Periode, 1%ige wäßrige Emulsion, 10 kg/ha; for Prozentsatz des Ansetzens der Körner bei freier Bestäubung: control = 100
# From the text: as §1, §2, §3, §4, §5, §6
# Pflanzen Tritikale der Sorte PRAG-109 werden in der V. Periode der Organogenese (nach Kupermann) mit einer 1%igen wäßrigen Emulsion von Phthalsäuredibutylester, Phthalsäurediäthylester, Phthalsäuredihexylester, Phthalsäurediisobutylester, Kaliumsalz der 2-Methyl-3-zyklohexenkarbon- säure, 2-Methyl-3-zyklohexenkarbonsäuremethylester behandelt. Die Emulsion enthält 0,01 Masse% Dimethylsulfoxid und 0,1 Masse% C12C14- Kalziumalkylbenzolsulfonat. Der Verbrauch an Präparat beträgt 10 kg/ha. Als Kontrolle dienen Pflanzen, behandelt mit einem Verdünner ohne Sterilisationsmittel. […]
# as §7
smiles,measurement,setting,value
"CC1C=CCCC1C(=O)O (stereo not drawn) [Beispiel 85, Ammoniumsalz der 2-Methyl-3-zyklohexenkarbonsäure]",Kornzahl der Ähre bei freier Bestäubung,[1],"57,8"
same,Kornzahl der Ähre im Isolator,[1],"0,0"
same,Prozentsatz der Sterilität,[1],"100,0%"
same,Prozentsatz des Ansetzens der Körner bei freier Bestäubung,[1],"92,0%"
"CC1C=CCCC1C(=O)O (stereo not drawn) [Beispiel 48, Kaliumsalz der 2-Methyl-3-zy-klohexenkarbonsäure]",Kornzahl der Ähre bei freier Bestäubung,[2],"45,6"
same,Kornzahl der Ähre im Isolator,[2],"0,1"
same,Prozentsatz der Sterilität,[2],"99,8%"
same,Prozentsatz des Ansetzens bei freier Bestäubung,[2],"96,8%"
"CCCCOC(=O)c1ccccc1C(=O)OCCCC [Beispiel 50, Phthalsäuredibutylester]",Kornzahl der Ähre bei freier Bestäubung,[2],"43,1"
same,Kornzahl der Ähre im Isolator,[2],"0,0"
same,Prozentsatz der Sterilität,[2],"100,0%"
same,Prozentsatz des Ansetzens bei freier Bestäubung,[2],"91,5%"
"O=C(O)c1ccc(O)cc1 [Beispiel 88, Ammoniumsalz der p-Hydroxybenzoesäure]",Kornzahl der Ähre bei freier Bestäubung,[1],"68,9"
same,Kornzahl der Ähre im Isolator,[1],"0,8"
same,Prozentsatz der Sterilität,[1],"98,5%"
same,Prozentsatz des Ansetzens der Körner bei freier Bestäubung,[1],"109,7%"
"C=CCOC(=O)c1ccccc1C(=O)OCC=C [Beispiel 86, Phthalsäurediallylester]",Kornzahl der Ähre bei freier Bestäubung,[1],"59,6"
same,Kornzahl der Ähre im Isolator,[1],"0,0"
same,Prozentsatz der Sterilität,[1],"100,0%"
same,Prozentsatz des Ansetzens der Körner bei freier Bestäubung,[1],"95,0%"
"COC(=O)C1CCC=CC1C (stereo not drawn) [Beispiel 84, 2--Methyl-3-zyklohexenkarbonsäuremethylester]",Kornzahl der Ähre bei freier Bestäubung,[1],"51,2"
same,Kornzahl der Ähre im Isolator,[1],"0,0"
same,Prozentsatz der Sterilität,[1],"100,0%"
same,Prozentsatz des Ansetzens der Körner bei freier Bestäubung,[1],"81,5%"
"CC1C=CCCC1C(=O)[O-].[K+] (stereo not drawn) [Beispiel 23, Kaliumsalz der 2-Methyl-3-zyklohexenkarbonsäure]",Kornzahl der Ähre bei freier Bestäubung,[3],"30,8"
same,Kornzahl der Ähre im Isolator,[3],"0,0"
same,Prozentsatz der Sterilität,[3],"100,0%"
same,Prozentsatz des Ansetzens der freier Bestäubung,[3],"92,8%"
"CC(C)COC(=O)c1ccccc1C(=O)OCC(C)C [Beispiel 82, Phthalsäurediisobutylester]",Kornzahl der Ähre bei freier Bestäubung,[1],"57,1"
same,Kornzahl der Ähre im Isolator,[1],"0,6"
same,Prozentsatz der Sterilität,[1],"98,9%"
same,Prozentsatz des Ansetzens der Körner bei freier Bestäubung,[1],"90,9%"
"CCOC(=O)c1ccccc1C(=O)OCC [Beispiel 38, Phthalsäurediäthylester]",Kornzahl der Ähre bei freier Bestäubung,[4],"60,8"
same,Kornzahl der Ähre im Isolator,[4],"0,8"
same,Prozentsatz der Sterilität,[4],"98,7%"
same,Prozentsatz des Ansetzens der Körner bei freier Bestäubung,[4],"88,1%"
"CCCCCCOC(=O)c1ccccc1C(=O)OCCCCCC [Beispiel 51, Phthalsäuredihexylester]",Kornzahl der Ähre bei freier Bestäubung,[2],"45,9"
same,Kornzahl der Ähre im Isolator,[2],"0,2"
same,Prozentsatz der Sterilität,[2],"99,5%"
same,Prozentsatz des Ansetzens bei freier Bestäubung,[2],"97,4%"
"CCCOC(=O)c1ccccc1C(=O)OCCC [Beispiel 26, Phthalsäuredipropylester]",Kornzahl der Ähre bei freier Bestäubung,[3],"28,6"
same,Kornzahl der Ähre im Isolator,[3],"1,2"
same,Prozentsatz der Sterilität,[3],"95,6%"
same,Prozentsatz des Ansetzens der freier Bestäubung,[3],"86,1%"
"C=CCOC(=O)c1ccccc1C(=O)OCC=C [Beispiel 27, Phthalsäurediallylester]",Kornzahl der Ähre bei freier Bestäubung,[3],"31,1"
same,Kornzahl der Ähre im Isolator,[3],"0,3"
same,Prozentsatz der Sterilität,[3],"98,9%"
same,Prozentsatz des Ansetzens der freier Bestäubung,[3],"94,0%"
"CC(C)COC(=O)c1ccccc1C(=O)OCC(C)C [Beispiel 28, Phthalsäurediisobutylester]",Kornzahl der Ähre bei freier Bestäubung,[3],"31,8"
same,Kornzahl der Ähre im Isolator,[3],"0,0"
same,Prozentsatz der Sterilität,[3],"100,0%"
same,Prozentsatz des Ansetzens der freier Bestäubung,[3],"95,8%"
"COC(=O)C1CCC=CC1C (stereo not drawn) [Beispiel 42, 2-Methyl-3-zyklohexenkarbonsäuremethylester]",Kornzahl der Ähre bei freier Bestäubung,[4],"64,7"
same,Kornzahl der Ähre im Isolator,[4],"0,0"
same,Prozentsatz der Sterilität,[4],"100,0%"
same,Prozentsatz des Ansetzens der Körner bei freier Bestäubung,[4],"93,8%"
"CCCOC(=O)c1ccccc1C(=O)OCCC [Beispiel 52, Phthalsäuredipropylester]",Kornzahl der Ähre bei freier Bestäubung,[2],"40,8"
same,Kornzahl der Ähre im Isolator,[2],"0,0"
same,Prozentsatz der Sterilität,[2],"100,0%"
same,Prozentsatz des Ansetzens bei freier Bestäubung,[2],"86,6%"
"O=C([O-])c1ccccc1.[K+] [Beispiel 29, Kaliumsalz der Benzoesäure]",Kornzahl der Ähre bei freier Bestäubung,[3],"33,0"
same,Kornzahl der Ähre im Isolator,[3],"7,2"
same,Prozentsatz der Sterilität,[3],"73,8%"
same,Prozentsatz des Ansetzens der freier Bestäubung,[3],"99,4%"
"C=CCOC(=O)c1ccccc1C(=O)OCC=C [Beispiel 53, Phthalsäurediallylester]",Kornzahl der Ähre bei freier Bestäubung,[2],"41,6"
same,Kornzahl der Ähre im Isolator,[2],"0,3"
same,Prozentsatz der Sterilität,[2],"99,7%"
same,Prozentsatz des Ansetzens bei freier Bestäubung,[2],"88,3%"
"CC1C=CCCC1C(=O)O (stereo not drawn) [Beispiel 83, Kaliumsalz der 2-Methyl-3-zyklohexenkarbonsäure]",Kornzahl der Ähre bei freier Bestäubung,[1],"56,7"
same,Kornzahl der Ähre im Isolator,[1],"0,2"
same,Prozentsatz der Sterilität,[1],"99,7%"
same,Prozentsatz des Ansetzens der Körner bei freier Bestäubung,[1],"90,2%"
"COC(=O)C1CCC=CC1C (stereo not drawn) [Beispiel 49, 2-Methyl-3-zyklohexenkarbonsäuremethyl-ester]",Kornzahl der Ähre bei freier Bestäubung,[2],"44,2"
same,Kornzahl der Ähre im Isolator,[2],"0,0"
same,Prozentsatz der Sterilität,[2],"100,0%"
same,Prozentsatz des Ansetzens bei freier Bestäubung,[2],"93,8%"
"CCCCCCOC(=O)c1ccccc1C(=O)OCCCCCC [Beispiel 39, Phthalsäuredihexylester]",Kornzahl der Ähre bei freier Bestäubung,[4],"61,7"
same,Kornzahl der Ähre im Isolator,[4],"3,0"
same,Prozentsatz der Sterilität,[4],"95,2%"
same,Prozentsatz des Ansetzens der Körner bei freier Bestäubung,[4],"89,4%"
"CC1C=CCCC1C(=O)O (stereo not drawn) [Beispiel 41, Kaliumsalz der 2-Methyl-3-zyklohexenkarbon-säure]",Kornzahl der Ähre bei freier Bestäubung,[4],"65,1"
same,Kornzahl der Ähre im Isolator,[4],"0,1"
same,Prozentsatz der Sterilität,[4],"99,8%"
same,Prozentsatz des Ansetzens der Körner bei freier Bestäubung,[4],"94,3%"
"CCCCOC(=O)c1ccccc1C(=O)OCCCC [Beispiel 37, Phthalsäuredibutylester]",Kornzahl der Ähre bei freier Bestäubung,[4],"62,1"
same,Kornzahl der Ähre im Isolator,[4],"0,1"
same,Prozentsatz der Sterilität,[4],"99,8%"
same,Prozentsatz des Ansetzens der Körner bei freier Bestäubung,[4],"90,0%"
"CCOC(=O)C1CCC=CC1C (stereo not drawn) [Beispiel 24, 2-Methyl-3-zyklohexenkarbon-äthylester]",Kornzahl der Ähre bei freier Bestäubung,[3],"29,6"
same,Kornzahl der Ähre im Isolator,[3],"0,0"
same,Prozentsatz der Sterilität,[3],"100,0%"
same,Prozentsatz des Ansetzens der freier Bestäubung,[3],"89,2%"
"CCCCCCOC(=O)c1ccccc1C(=O)OCCCCCC [Beispiel 87, Phthalsäuredihexylester]",Kornzahl der Ähre bei freier Bestäubung,[1],"56,4"
same,Kornzahl der Ähre im Isolator,[1],"0,0"
same,Prozentsatz der Sterilität,[1],"100,0%"
same,Prozentsatz des Ansetzens der Körner bei freier Bestäubung,[1],"89,8%"
